SMILES strings stand for the structures.

In assay [1] the target is T1, dextransucrase from Leuconostoc mesenteroides URE 13.
T1 construct: native extracellular enzyme, 180 kDa, from sucrose-grown culture; PEG 1500 precipitation and Sepharose CL-6B size-exclusion
Put plainly: fructose/glucose release from sucrose, coupled hexokinase assay; Lineweaver-Burk. It counts as biochemical. The conditions noted are these: 1-200 mmol sucrose, 20 mmol/L sodium acetate pH 5.2, 30 °C, inhibition mode not stated.

The test system of assay [2] is T1, dextransucrase from Leuconostoc mesenteroides URE 13. Put plainly: fructose/glucose release from sucrose, coupled hexokinase assay. Format: biochemical. Conditions: 20 mmol/L sodium acetate pH 5.2-5.3, 30 °C; substrate inhibition above 200 mmol.
The mark [3] stands for this setting: terpenoid dissolved in DMSO (20% final).

For the molecule `C[C@H]1O[C@H](O[C@H]2[C@H](O)[C@@H](O)[C@@H](O[C@H]3[C@H](O)[C@@H](O)C(O)O[C@@H]3CO)O[C@@H]2CO)[C@H](O)[C@@H](O)[C@@H]1N[C@H]1C=C(CO)[C@@H](O)[C@H](O)[C@H]1O` (stereo partly shown) [acarbose], in assay [1], the Ki is given as 0.29 mmol.
As to `CC(=O)OC1C=CC2C(=O)OCC23CCC2C(=O)OC(c4ccoc4)C(OC(C)=O)C2(C)C13` (stereo not shown) [splendidin], the Ki in assay [1] (setting [3]) turned out to be 0.28 mmol.
On to `OC[C@H]1O[C@@](CO)(O[C@H]2O[C@H](CO)[C@@H](O)[C@H](O)[C@H]2O)[C@@H](O)[C@@H]1O` [sucrose], for which, in assay [2], the Km is 18.0 mmol.
In turn, `C[C@H]1[C@H](C)CC[C@]2(C(=O)O)CC[C@]3(C)C(=CC[C@@H]4[C@@]5(C)CC[C@H](O)C(C)(C)[C@@H]5CC[C@]43C)[C@H]12` [ursolic acid] showed a Ki in assay [1] (setting [3]) of 0.37 mmol.

The values are drawn from paper PMC4434044, “Influence of terpenoids and acarbose on glycosyltransferases produced by strain Leuconostoc mesenteroides URE 13” (Biotechnology, Biotechnological Equipment, 2014).
